Tests used:
IKZF3 = biological target: T1, IKZF3 (Homo sapiens, UniProt Q96SW2+Q9UKT9); test: Western blot degradation of IKZF3 in hPBMCs (24 h); format: cell-based; settings: compounds at 50 nM and 500 nM
T1 construct: The supernatant was aspirated as the extracted total cell protein; endogenous in cells; host or cells: human peripheral blood mononuclear cells (hPBMCs)
In short: (§1)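 Immunoblot densitometry quantifies target loss in hPBMCs after a 24 h compound exposure (50 nM, 500 nM). Percent remaining is normalised band intensity; DC50 is the concentration giving half the DMSO-control band grayscale.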

MM.1S cells = test: Inhibition of proliferation of multiple myeloma cells MM.1S (cell viability assay, 96 h); format: cell-based, human; settings: read-out: inhibitory activity (IC50) against tumor cells proliferation, MM.1S
Procedure: The tumor cells used herein were cultured in a cell culture medium listed in table 2 at 37 °C in an incubator with 5% CO2. Prior to experimentation, all cell lines used were correctly identified by STR profiling, and tested negative for Mycoplasma contamination using a Mycoplasma detection kit through routine screenings.
The IC50 values of the compounds of the present disclosure (including the compounds in Table 1, and Examples 1-498) were determined using the CellTiter-Meiluncell Luminescent Cell Viability Assay Kit from Dalian Meilun Biotech Co., Ltd. The detailed procedure is as follows: Tumor cells were seeded in 96-well cell culture plates at the densities specified in Table 3. On the following day, the test compounds of the present disclosure were subjected to serial dilution. […] Subsequently, 0.5 μL of the test compound dilution was transferred into the 96-well plate containing the cells, with each well containing 100 μL of cell culture medium. […] Into the 96-well plate, the diluted test compounds and corresponding detection reagents were added, resulting in final test compound concentrations of 500 nM and 10 nM, respectively. The experimental procedure is described below using the diluted 2 μM test compound as an example.
0.5 μL of the aforementioned diluted compound of the present disclosure (including the compounds in Table 1, and Examples 1-498) was added to the seeded cells in 100 μL of medium, yielding a final test compound concentration of 10 nM. After the cells were treated with the compounds of the present disclosure for a specified period, the cell viability assay reagent was added to the culture medium according to the kit's instructions to determine cell viability. […] All controls were treated using the same procedure as the compounds of the present disclosure. The growth inhibition curves for the compounds of the present disclosure were plotted using Prism GraphPad software, and the IC50 values were calculated therefrom.

CK1α = biological target: T2, CK1α (Homo sapiens, UniProt P48729+Q96SW2); test: Western blot degradation of CK1α in hPBMCs (24 h); format: cell-based; settings: compounds at 50 nM and 500 nM
T2 construct: The supernatant was aspirated as the extracted total cell protein; endogenous in cells; host or cells: human peripheral blood mononuclear cells (hPBMCs)
In short: as §1

IKZF1 = biological target: T3, IKZF1 (Homo sapiens, UniProt Q13422+Q96SW2); test: Western blot degradation of IKZF1 in hPBMCs (24 h); format: cell-based; settings: compounds at 50 nM and 500 nM
T3 construct: The supernatant was aspirated as the extracted total cell protein; endogenous in cells; host or cells: human peripheral blood mononuclear cells (hPBMCs)
T3 sequence (Q13422 whole entry): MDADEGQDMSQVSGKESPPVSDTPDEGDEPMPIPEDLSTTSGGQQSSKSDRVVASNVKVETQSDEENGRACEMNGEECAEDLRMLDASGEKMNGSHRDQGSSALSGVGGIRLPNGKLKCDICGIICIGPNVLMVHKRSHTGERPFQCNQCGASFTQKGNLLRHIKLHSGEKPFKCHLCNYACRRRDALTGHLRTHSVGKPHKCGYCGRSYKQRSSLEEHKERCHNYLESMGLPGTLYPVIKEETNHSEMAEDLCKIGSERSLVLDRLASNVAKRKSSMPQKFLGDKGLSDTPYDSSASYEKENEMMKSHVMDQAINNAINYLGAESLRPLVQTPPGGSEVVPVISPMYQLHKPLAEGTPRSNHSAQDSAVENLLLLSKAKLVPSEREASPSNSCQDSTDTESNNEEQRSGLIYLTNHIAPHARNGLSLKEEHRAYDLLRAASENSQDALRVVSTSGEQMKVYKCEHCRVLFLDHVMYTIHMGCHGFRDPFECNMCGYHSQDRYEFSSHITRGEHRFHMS
T3 sequence (Q96SW2 whole entry): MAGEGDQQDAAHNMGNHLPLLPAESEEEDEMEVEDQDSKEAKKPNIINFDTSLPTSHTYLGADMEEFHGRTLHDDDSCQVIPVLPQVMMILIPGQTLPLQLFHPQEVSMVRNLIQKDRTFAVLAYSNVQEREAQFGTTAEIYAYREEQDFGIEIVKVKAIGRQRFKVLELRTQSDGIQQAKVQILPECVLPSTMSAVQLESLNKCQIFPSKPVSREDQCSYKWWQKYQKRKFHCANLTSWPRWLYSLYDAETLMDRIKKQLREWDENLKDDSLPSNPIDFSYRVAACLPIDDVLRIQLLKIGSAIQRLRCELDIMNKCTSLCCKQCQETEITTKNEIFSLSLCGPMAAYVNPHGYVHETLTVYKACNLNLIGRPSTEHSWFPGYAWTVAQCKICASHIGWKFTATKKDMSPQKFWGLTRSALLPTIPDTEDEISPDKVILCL
T3 sequence (Q16531 whole entry partner): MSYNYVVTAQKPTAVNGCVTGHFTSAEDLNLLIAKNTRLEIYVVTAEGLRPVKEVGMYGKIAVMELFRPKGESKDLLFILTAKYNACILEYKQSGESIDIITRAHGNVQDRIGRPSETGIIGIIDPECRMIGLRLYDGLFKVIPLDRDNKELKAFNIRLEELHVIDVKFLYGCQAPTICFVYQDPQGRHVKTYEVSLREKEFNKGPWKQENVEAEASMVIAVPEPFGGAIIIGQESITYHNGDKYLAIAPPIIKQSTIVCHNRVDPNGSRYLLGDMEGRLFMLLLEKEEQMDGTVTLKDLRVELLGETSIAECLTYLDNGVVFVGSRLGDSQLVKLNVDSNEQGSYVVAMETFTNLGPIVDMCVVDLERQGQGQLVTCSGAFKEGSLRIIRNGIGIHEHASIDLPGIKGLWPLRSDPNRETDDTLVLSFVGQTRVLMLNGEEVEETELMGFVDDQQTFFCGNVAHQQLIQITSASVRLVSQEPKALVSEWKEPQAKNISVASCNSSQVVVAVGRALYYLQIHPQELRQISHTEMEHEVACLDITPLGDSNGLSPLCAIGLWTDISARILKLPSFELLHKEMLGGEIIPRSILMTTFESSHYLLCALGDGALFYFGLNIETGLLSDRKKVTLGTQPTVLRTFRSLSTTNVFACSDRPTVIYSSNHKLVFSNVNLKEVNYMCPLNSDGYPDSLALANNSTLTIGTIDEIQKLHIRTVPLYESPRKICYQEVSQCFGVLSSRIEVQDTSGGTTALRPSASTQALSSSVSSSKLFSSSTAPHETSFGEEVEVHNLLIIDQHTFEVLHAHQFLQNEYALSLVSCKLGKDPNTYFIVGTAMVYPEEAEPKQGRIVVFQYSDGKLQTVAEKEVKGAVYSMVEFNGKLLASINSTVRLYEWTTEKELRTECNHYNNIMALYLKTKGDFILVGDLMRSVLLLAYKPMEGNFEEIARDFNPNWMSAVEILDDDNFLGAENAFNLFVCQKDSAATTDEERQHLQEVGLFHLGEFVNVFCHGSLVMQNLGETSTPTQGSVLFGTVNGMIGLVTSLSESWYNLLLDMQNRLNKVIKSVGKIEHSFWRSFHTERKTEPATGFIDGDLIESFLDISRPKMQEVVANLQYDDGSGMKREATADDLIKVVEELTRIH
In short: as §1

WEE1 = biological target: T4, WEE1 (Homo sapiens, UniProt P30291+Q96SW2); test: Western blot degradation of WEE1 in hPBMCs (24 h); format: cell-based; settings: compounds at 50 nM and 500 nM
T4 construct: The supernatant was aspirated as the extracted total cell protein; endogenous in cells; host or cells: human peripheral blood mononuclear cells (hPBMCs)
T4 sequence (P30291 whole entry): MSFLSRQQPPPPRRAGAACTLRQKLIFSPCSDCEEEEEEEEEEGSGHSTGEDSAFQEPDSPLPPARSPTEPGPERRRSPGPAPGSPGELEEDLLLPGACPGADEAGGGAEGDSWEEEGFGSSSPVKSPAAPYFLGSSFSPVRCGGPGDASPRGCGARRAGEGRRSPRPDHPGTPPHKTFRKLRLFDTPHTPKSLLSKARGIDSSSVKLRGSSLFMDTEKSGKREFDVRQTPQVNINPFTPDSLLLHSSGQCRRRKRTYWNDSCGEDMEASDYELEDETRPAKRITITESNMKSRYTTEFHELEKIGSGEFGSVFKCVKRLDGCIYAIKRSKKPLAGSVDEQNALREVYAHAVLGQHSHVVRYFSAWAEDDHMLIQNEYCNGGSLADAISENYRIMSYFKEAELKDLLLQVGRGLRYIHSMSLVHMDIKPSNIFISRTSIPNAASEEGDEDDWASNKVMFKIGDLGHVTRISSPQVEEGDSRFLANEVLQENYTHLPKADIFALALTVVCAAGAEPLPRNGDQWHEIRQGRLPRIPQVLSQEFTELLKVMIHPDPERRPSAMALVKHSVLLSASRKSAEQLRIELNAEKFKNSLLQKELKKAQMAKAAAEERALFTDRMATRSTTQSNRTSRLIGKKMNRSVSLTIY
T4 sequence (Q96SW2 whole entry): as the sequence (Q96SW2 whole entry) above
T4 sequence (Q16531 whole entry partner): as the sequence (Q16531 whole entry partner) above
In short: as §1

IKZF2 = biological target: T5, IKZF2 (Homo sapiens, UniProt Q96SW2+Q9UKS7); test: Western blot degradation of IKZF2 in hPBMCs (24 h); format: cell-based; settings: compounds at 50 nM and 500 nM
T5 construct: The supernatant was aspirated as the extracted total cell protein; endogenous in cells; host or cells: human peripheral blood mononuclear cells (hPBMCs)
T5 sequence (Q9UKS7 whole entry): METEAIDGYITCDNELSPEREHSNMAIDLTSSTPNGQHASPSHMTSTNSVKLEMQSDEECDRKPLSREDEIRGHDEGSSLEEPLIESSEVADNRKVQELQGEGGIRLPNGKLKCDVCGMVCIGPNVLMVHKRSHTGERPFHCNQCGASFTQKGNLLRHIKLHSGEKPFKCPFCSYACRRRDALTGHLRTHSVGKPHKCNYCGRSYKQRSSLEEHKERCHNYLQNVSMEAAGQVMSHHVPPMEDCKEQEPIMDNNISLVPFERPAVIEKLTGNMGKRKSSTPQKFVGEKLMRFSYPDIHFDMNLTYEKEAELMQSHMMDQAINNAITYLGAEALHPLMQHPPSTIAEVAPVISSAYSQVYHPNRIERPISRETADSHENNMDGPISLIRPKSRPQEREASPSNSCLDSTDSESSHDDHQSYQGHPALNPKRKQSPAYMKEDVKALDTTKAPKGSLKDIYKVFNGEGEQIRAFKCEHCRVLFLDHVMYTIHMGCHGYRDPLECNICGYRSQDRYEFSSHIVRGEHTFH
T5 sequence (Q96SW2 whole entry): as the sequence (Q96SW2 whole entry) above
T5 sequence (Q16531 whole entry partner): as the sequence (Q16531 whole entry partner) above
In short: as §1

GSPT1 = biological target: T6, GSPT1 (Homo sapiens, UniProt P15170+Q96SW2); test: Western blot degradation of GSPT1 in hPBMCs (24 h); format: cell-based; settings: compounds at 50 nM and 500 nM
T6 construct: The supernatant was aspirated as the extracted total cell protein; endogenous in cells; host or cells: human peripheral blood mononuclear cells (hPBMCs)
T6 sequence (P15170 whole entry): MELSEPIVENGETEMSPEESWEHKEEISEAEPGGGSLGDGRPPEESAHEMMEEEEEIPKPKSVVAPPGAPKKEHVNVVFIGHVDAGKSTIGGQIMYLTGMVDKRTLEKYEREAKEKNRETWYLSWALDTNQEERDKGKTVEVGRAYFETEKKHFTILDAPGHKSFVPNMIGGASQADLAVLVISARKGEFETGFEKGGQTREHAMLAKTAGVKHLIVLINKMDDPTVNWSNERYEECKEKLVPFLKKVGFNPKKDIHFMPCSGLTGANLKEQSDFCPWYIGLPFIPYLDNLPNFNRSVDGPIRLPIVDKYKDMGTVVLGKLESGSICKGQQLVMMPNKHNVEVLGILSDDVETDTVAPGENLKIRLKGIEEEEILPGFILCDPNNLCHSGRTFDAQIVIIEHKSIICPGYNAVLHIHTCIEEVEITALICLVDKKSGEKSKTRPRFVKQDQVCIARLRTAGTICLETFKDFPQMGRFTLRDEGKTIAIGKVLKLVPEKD
T6 sequence (Q96SW2 whole entry): as the sequence (Q96SW2 whole entry) above
T6 sequence (Q16531 whole entry partner): as the sequence (Q16531 whole entry partner) above
In short: as §1

T1 sequence (Q9UKT9 whole entry): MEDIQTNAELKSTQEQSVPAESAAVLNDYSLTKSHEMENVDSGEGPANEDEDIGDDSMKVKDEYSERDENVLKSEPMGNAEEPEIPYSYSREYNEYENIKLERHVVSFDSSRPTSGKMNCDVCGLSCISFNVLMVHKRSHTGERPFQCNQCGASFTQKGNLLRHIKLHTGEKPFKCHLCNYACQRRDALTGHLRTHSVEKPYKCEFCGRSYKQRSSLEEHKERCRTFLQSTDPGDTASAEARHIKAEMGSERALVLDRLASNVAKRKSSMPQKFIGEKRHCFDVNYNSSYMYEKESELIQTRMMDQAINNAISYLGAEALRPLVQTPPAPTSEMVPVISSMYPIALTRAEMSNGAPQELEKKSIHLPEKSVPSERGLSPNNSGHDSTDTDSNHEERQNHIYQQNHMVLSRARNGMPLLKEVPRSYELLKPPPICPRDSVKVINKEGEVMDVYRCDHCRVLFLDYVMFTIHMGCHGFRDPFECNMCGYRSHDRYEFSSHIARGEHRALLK
T1 sequence (Q96SW2 whole entry): as the sequence (Q96SW2 whole entry) above
T1 sequence (Q16531 whole entry partner): as the sequence (Q16531 whole entry partner) above

Row | SMILES | IKZF3 substrate protein remaining % (IKZF3) | IC50 (MM.1S cells) [nM] | CK1α substrate protein remaining % (CK1α) | IKZF1 substrate protein remaining % (IKZF1) | WEE1 substrate protein remaining % (WEE1) | IKZF2 substrate protein remaining % (IKZF2) | GSPT1 substrate protein remaining % (GSPT1)
1 | O=C1CCN(N2Cc3cc(CN4CCN(C(c5ccc(F)cc5)c5ccc(F)cc5)CC4)ccc3C2=O)C(=O)N1 [GT-04894, 1-(5-((4-(bis(4-fluorophenyl)methyl)piperazin-1-yl)methyl)-1-oxoisoindolin-2-yl)dihydropyrimidine-2,4(1H,3H)-dione] | B (80%< substrate protein remaining % ≤100%) | 500 to 1000 | B (80%< substrate protein remaining % ≤100%) | A (0% ≤ substrate protein remaining % ≤80%) | A (0% ≤ substrate protein remaining % ≤80%) | A (0% ≤ substrate protein remaining % ≤80%) | A (0% ≤ substrate protein remaining % ≤80%)
2 | O=C1CCN(N2Cc3cc(CN4CCC(N5CCc6cc(F)ccc65)CC4)ccc3C2=O)C(=O)N1 [GT-05165, 1-(5-((4-(5-fluoroindolin-1-yl)piperidin-1-yl)methyl)-1-oxoisoindolin-2-yl)dihydropyrimidine-2,4(1H,3H)-dione] | B (80%< substrate protein remaining % ≤100%) | 500 to 1000 | B (80%< substrate protein remaining % ≤100%) | B (80%< substrate protein remaining % ≤100%) | B (80%< substrate protein remaining % ≤100%) | A (0% ≤ substrate protein remaining % ≤80%) | A (0% ≤ substrate protein remaining % ≤80%)
3 | O=C1CCN(N2Cc3cc(CN4CC=C(c5cncc(Cl)c5Cl)CC4)ccc3C2=O)C(=O)N1 [GT-06393, 1-(5-((4,5-dichloro-3′,6′-dihydro-[3,4′-bipyridin]-1′ (2′H)-yl)methyl)-1-oxoisoindolin-2-yl)dihydropyrimidine-2,4(1H,3H)-dione] | A (0% ≤ substrate protein remaining % ≤80%) | 500 to 1000 | A (0% ≤ substrate protein remaining % ≤80%) | B (80%< substrate protein remaining % ≤100%) | A (0% ≤ substrate protein remaining % ≤80%) | A (0% ≤ substrate protein remaining % ≤80%) | A (0% ≤ substrate protein remaining % ≤80%)
4 | O=C1CCN(N2Cc3cc(CN4CCN(c5ccc(Cl)cn5)CC4)ccc3C2=O)C(=O)N1 [GT-05127, 1-(5-((4-(5-chloropyridin-2-yl)piperazin-1-yl)methyl)-1-oxoisoindolin-2-yl)dihydropyrimidine-2,4(1H,3H)-dione] | A (0% ≤ substrate protein remaining % ≤80%) | 500 to 1000 | A (0% ≤ substrate protein remaining % ≤80%) | A (0% ≤ substrate protein remaining % ≤80%) | A (0% ≤ substrate protein remaining % ≤80%) | B (80%< substrate protein remaining % ≤100%) | A (0% ≤ substrate protein remaining % ≤80%)
5 | N#Cc1ccc(N2CCN(Cc3ccc(COc4cccc5c4CN(N4CCC(=O)NC4=O)C5=O)cc3)CC2)c(F)c1 [GT-06132, 4-(4-(4-(((2-(2,4-dioxotetrahydropyrimidin-1(2H)-yl)-1-oxoisoindolin-4-yl)oxy)methyl)benzyl)piperazin-1-yl)-3-fluorobenzonitrile] |  | 100 to 300 |  |  |  |  | 
6 | Cc1nc(N2CCN(Cc3ccc4c(c3)C(=O)N(N3CCC(=O)NC3=O)C4=O)CC2)c2c3c(sc2n1)CCC3 [GT-08104, 2-(2,4-dioxotetrahydropyrimidin-1(2H)-yl)-5-((4-(2-methyl-6,7-dihydro-5H-cyclopenta[4,5]thieno[2,3-d]pyrimidin-4-yl)piperazin-1-yl)methyl)isoindoline-1,3-dione] | A (0% ≤ substrate protein remaining % ≤80%) |  | B (80%< substrate protein remaining % ≤100%) | B (80%< substrate protein remaining % ≤100%) | A (0% ≤ substrate protein remaining % ≤80%) | A (0% ≤ substrate protein remaining % ≤80%) | A (0% ≤ substrate protein remaining % ≤80%)
7 | O=C1CCN(N2C(=O)c3ccc(CN4CCN(c5ccsc5)CC4)cc3C2=O)C(=O)N1 [GT-05313, 2-(2,4-dioxotetrahydropyrimidin-1(2H)-yl)-5-((4-(thiophen-3-yl)piperazin-1-yl)methyl)isoindoline-1,3-dione] | B (80%< substrate protein remaining % ≤100%) |  | B (80%< substrate protein remaining % ≤100%) | B (80%< substrate protein remaining % ≤100%) | B (80%< substrate protein remaining % ≤100%) | B (80%< substrate protein remaining % ≤100%) | A (0% ≤ substrate protein remaining % ≤80%)
8 | Cc1sc2ncnc(N3CCN(Cc4ccc5c(c4)CN(N4CCC(=O)NC4=O)C5=O)CC3)c2c1C [GT-08061, 1-(5-((4-(5,6-dimethylthieno[2,3-d]pyrimidin-4-yl)piperazin-1-yl)methyl)-1-oxoisoindolin-2-yl)dihydropyrimidine-2,4(1H,3H)-dione] | A (0% ≤ substrate protein remaining % ≤80%) |  | B (80%< substrate protein remaining % ≤100%) | B (80%< substrate protein remaining % ≤100%) | B (80%< substrate protein remaining % ≤100%) | A (0% ≤ substrate protein remaining % ≤80%) | B (80%< substrate protein remaining % ≤100%)
9 | O=C1CCN(N2Cc3cc(CN4CCC(c5ccc(F)cc5)CC4)ccc3C2=O)C(=O)N1 [GT-06890, 1-(5-((4-(4-fluorophenyl)piperidin-1-yl)methyl)-1-oxoisoindolin-2-yl)dihydropyrimidine-2,4(1H,3H)-dione] | B (80%< substrate protein remaining % ≤100%) |  | B (80%< substrate protein remaining % ≤100%) | B (80%< substrate protein remaining % ≤100%) | A (0% ≤ substrate protein remaining % ≤80%) | B (80%< substrate protein remaining % ≤100%) | A (0% ≤ substrate protein remaining % ≤80%)
10 | COc1cccc(N2CCN(Cc3ccc4c(c3)C(=O)N(N3CCC(=O)NC3=O)C4=O)CC2)c1 [GT-06721, 2-(2,4-dioxotetrahydropyrimidin-1(2H)-yl)-5-((4-(3-methoxyphenyl)piperazin-1-yl)methyl)isoindoline-1,3-dione] | A (0% ≤ substrate protein remaining % ≤80%) |  | B (80%< substrate protein remaining % ≤100%) | A (0% ≤ substrate protein remaining % ≤80%) | B (80%< substrate protein remaining % ≤100%) | A (0% ≤ substrate protein remaining % ≤80%) | B (80%< substrate protein remaining % ≤100%)
